The values that follow come from US20260232671A1, “PHARMACEUTICAL COMPOSITION FOR LOCAL ADMINISTRATION, PREPARATION METHOD THEREFOR, AND USE THEREOF” (priority 2023, published 2026).

Data set [1] can be described thus: Preparation of solutions: clear or turbid phenomenon in solvent mixtures. The format is physicochemical.
The test system of data set [2] is freshly excised skin samples from Bama miniature pigs. Kind of data set: IVPT, Franz diffusion cells, Example 12. The data set is classed as in vitro ADME. The settings on record: penetration enhancer 7% in 1% solution, compared with the solution in the blank group. The procedure:
The penetrability of the API in the topical formulations was studied using freshly excised skin samples from Bama miniature pigs mounted in Franz diffusion cells. The fresh skin of Bama miniature pigs was depilated and then stored at −20° C. for later use. On the morning of the experiment, the skin was taken out and thawed, and after the transepidermal water loss value of the skin was detected to be less than 30, the skin was ready for use. The skin was cut to a size suitable for placing the pig skin samples between the donor and receiver compartments, and the pig skin samples were placed between the donor and receiver compartments of the Franz diffusion cell. About 60 mg of the sample was evenly applied to the pig skin. The opening of the Franz cell was 3.14 cm^2. 8.0 mL of a receiver solution was used. At 0.5 h, 2 h, […], and 24 h, 1.0 mL of the sample was removed and replaced with a new receiver solution. At 24 h, the skin was collected. The pig skin was treated, the epidermal and dermis layers were separated and extracted with a skin extract solution, and the residual drug amount, drug concentrations in the epidermal and dermis layers, and drug penetration concentration were detected by HPLC.

As for `COc1nsc(NC(=O)N2C[C@H]3CC(N(C)c4ncnc5[nH]ccc45)C[C@H]3C2)n1` (stereo partly drawn) [Active ingredient in free base form, (3aR,5s,6aS)—N-(3-methoxy-1,2,4-thiadiazol-5-yl)-5-(methyl(7H-pyrrolo[2,3-d]pyrimidin-4-yl)amino)hexahydrocyclopenta[c]pyrrole-2(1H)-carboxamide], in data set [1] (concentration of dimethyl sulfoxide maintained at a high level, addition of a trace amount of water), the “preparation of a clear solution” value is “failed to prepare a clear solution above 1% concentration”. Besides, the “state of the solutions” value in data set [1] (concentration of the active ingredient 1%, dimethyl sulfoxide replaced with ethanol, propylene glycol, polyethylene glycol 400, or dimethylformamide) is “suspensions”. The Phenomenon result is reported as “Turbid” in data set [1] (mass %: active ingredient 1, diethylene glycol monoethyl ether 40, dimethylformamide 45, propylene glycol 14); “Turbid” in data set [1] (mass %: active ingredient 1, diethylene glycol monoethyl ether 40, ethanol 50, propylene glycol 9); “Turbid” in data set [1] (mass %: active ingredient 1, diethylene glycol monoethyl ether 40, polyethylene glycol 400 59); “Turbid” in data set [1] (mass %: active ingredient 1, diethylene glycol monoethyl ether 40, propylene glycol 59); “Turbid” in data set [1] (mass %: active ingredient 1, dimethyl sulfoxide 10, diethylene glycol monoethyl ether 40, polyethylene glycol 400 49); “Clear” in data set [1] (mass %: active ingredient 1, dimethyl sulfoxide 35, diethylene glycol monoethyl ether 10, glycerol 20, propylene glycol 34). The Phenomenon entry was “Clear” in data set [1] (mass %: active ingredient 1, dimethyl sulfoxide 35, diethylene glycol monoethyl ether 30, glycerol 20, propylene glycol 14); “Turbid” in data set [1] (mass %: active ingredient 1, dimethyl sulfoxide 40, diethylene glycol monoethyl ether 15, glycerol 20, propylene glycol 14, water 10); “Turbid” in data set [1] (mass %: active ingredient 1, dimethyl sulfoxide 40, diethylene glycol monoethyl ether 15, propylene glycol 14, water 30); “Turbid” in data set [1] (mass %: active ingredient 1, dimethyl sulfoxide 40, diethylene glycol monoethyl ether 35, propylene glycol 14, water 10); “Clear” in data set [1] (mass %: active ingredient 1, dimethyl sulfoxide 40, diethylene glycol monoethyl ether 40, glycerol 5, propylene glycol 14); “Turbid” in data set [1] (mass %: active ingredient 1, dimethylformamide 45, propylene glycol 54). In addition, the Phenomenon result in data set [1] (mass %: active ingredient 1, ethanol 45, propylene glycol 54) was “Turbid”; in data set [1] (mass %: active ingredient 1.5, dimethyl sulfoxide 45, diethylene glycol monoethyl ether 40, propylene glycol 13.5), “Clear”; in data set [1] (mass %: active ingredient 2, dimethyl sulfoxide 45, diethylene glycol monoethyl ether 40, propylene glycol 12), “Clear”.
For `CC(O)C(=O)O` (stereo not shown) [lactic acid], the skin penetration-enhancing effect result in data set [2] is “relatively good skin penetration-enhancing effect”.
On to propylene glycol monocaprylate, for which the skin penetration-enhancing effect entry in data set [2] was “certain skin penetration-enhancing effect”.
